Earlier results on one molecule are cited in patent US8916194B2 (Lupin Limited, priority 2010, dated 2014).

One may read the half-life as how long it takes for the measured level to halve.

For the data set the following is noted: in vivo.

`CCN(CC)C(=O)C1(c2ccccc2)CC1CN` (stereo not drawn) [Milnacipran, cis-2-amino methyl-N, N-diethyl-1-phenyl cyclopropane carboxamide]: the half-life is approximately 8 h.
